One test addresses T1, HDAC10 (Homo sapiens, UniProt Q969S8).
T1 sequence (Q969S8 1-669): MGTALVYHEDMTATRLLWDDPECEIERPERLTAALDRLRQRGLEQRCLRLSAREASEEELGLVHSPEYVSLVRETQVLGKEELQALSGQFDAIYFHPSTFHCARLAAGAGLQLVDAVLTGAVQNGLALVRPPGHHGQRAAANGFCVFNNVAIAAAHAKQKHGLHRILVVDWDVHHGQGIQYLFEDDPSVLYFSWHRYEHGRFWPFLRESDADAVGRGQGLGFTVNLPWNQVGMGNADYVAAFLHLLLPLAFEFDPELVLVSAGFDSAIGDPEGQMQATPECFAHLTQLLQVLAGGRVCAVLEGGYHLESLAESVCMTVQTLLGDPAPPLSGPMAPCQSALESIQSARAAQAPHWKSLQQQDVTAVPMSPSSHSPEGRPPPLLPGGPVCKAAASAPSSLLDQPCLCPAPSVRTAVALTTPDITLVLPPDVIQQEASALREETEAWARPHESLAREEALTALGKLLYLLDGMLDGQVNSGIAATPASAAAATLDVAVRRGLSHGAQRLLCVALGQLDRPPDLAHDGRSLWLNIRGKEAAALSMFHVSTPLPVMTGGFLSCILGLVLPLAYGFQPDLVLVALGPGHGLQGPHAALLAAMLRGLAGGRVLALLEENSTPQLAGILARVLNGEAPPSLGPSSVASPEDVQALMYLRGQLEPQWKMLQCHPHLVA
The experiment in a line: HDAC isoform selectivity, HDAC10. It is filed as biochemical. As to conditions: HDAC subtype panel.

A further test concerns MDM2, p53 in MCF-7 cells. The experiment in a line: Western blot, MDM2 and p53 protein level. Type of test: cell-based, human. Conditions: MCF-7, 24 h incubation. The method, then: (§1) The cells were collected and washed with cold PBS twice, then added the protease and phosphatase inhibitors contained lysis buffer. Total cell lysates were prepared in lysis RIPA buffer (Invitrogen, CA, USA) on ice for 30 min, followed by centrifugation at 12000 rpm for 10 min at 4°C. After collecting supernatant, protein concentration was determined by a BCA protein assay. The total proteins were loaded into the 10%-15% SDS-PAGE gel and separated by sodium dodecyl sulfate polyacrylamide gel electrophoresis (PAGE). After electrophoresis, the protein was transferred to the PVDF membranes and rinsed three times in PBST buffer for 10 min each time, then sealed with 5% BSA Buffer for 1h. The membranes were incubated at 4°C for 24 h with primary antibodies and washed with TBST three times. Then incubated at room temperature for 2 h with secondary antibodies (1:10,000). The incubated PVDF membranes were taken out and rinsed with TBST three times. The protein bands were visualized through enhanced chemiluminescence (ECL) WB substrate (Millipore, MA, USA) and analyzed by ChemiScope. The antibodies including p53, MDM2, H4, and GAPDH were purchased from Abcam (Cambridge, MA, USA).

For another test, the target named is T2, HDAC11 (Homo sapiens, UniProt Q96DB2).
T2 sequence (Q96DB2 1-347): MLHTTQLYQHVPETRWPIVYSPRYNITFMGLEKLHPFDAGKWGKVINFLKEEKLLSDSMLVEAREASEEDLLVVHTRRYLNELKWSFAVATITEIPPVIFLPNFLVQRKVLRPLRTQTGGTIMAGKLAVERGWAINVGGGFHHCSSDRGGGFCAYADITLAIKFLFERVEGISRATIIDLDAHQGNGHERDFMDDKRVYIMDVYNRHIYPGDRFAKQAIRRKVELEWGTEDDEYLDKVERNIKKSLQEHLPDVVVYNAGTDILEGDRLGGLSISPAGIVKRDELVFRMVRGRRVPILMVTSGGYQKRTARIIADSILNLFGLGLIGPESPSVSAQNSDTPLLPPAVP
The experiment in a line: HDAC isoform selectivity, HDAC11. It is filed as biochemical. Conditions: HDAC subtype panel.

In a further test the target is HDAC3 (Homo sapiens, UniProt O15379). Briefly: HDAC isoform selectivity, HDAC3. Conditions: HDAC subtype panel. Type of test: biochemical.
The target in another test is HDAC5 (Homo sapiens, UniProt Q9UQL6). Briefly: HDAC isoform selectivity, HDAC5. As to conditions: HDAC subtype panel. It is filed as biochemical.
The next test addresses HDAC4 (Homo sapiens, UniProt P56524). The experiment in a line: HDAC isoform selectivity, HDAC4. It is filed as biochemical. As to conditions: HDAC subtype panel.
The target in another test is T3, HDAC8 (Homo sapiens, UniProt Q9BY41).
T3 sequence (Q9BY41 1-377): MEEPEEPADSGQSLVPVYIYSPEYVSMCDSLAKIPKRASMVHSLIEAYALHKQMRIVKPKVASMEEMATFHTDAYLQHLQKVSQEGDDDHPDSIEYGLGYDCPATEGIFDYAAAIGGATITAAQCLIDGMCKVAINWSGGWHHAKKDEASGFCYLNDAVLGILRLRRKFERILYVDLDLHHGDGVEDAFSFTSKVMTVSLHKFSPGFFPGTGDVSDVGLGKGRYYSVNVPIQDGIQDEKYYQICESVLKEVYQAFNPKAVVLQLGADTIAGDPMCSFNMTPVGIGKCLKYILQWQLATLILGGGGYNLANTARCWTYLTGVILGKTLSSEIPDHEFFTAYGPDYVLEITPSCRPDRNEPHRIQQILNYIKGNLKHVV
Briefly: HDAC isoform selectivity, HDAC8. Conditions: HDAC subtype panel. Type of test: biochemical.

In the next test the target is HDAC9 (Homo sapiens, UniProt Q9UKV0). Briefly: HDAC isoform selectivity, HDAC9. It is filed as biochemical. Conditions: HDAC subtype panel.
The target in the next test is HDAC1 (Homo sapiens, UniProt Q13547). Briefly: HTRF enzyme inhibition assay, HDAC1.
The subject of another test is MCF-7 cells. The experiment in a line: TUNEL staining apoptosis assay. As to conditions: MCF-7, 0.5 μM, 24 h, compared with SAHA and Nutlin-3. It is filed as cell-based, human. The protocol:
It was reported that the inactivation of HDAC and/or MDM2 could increase the percentage of apoptosis cells ([85]–[87]). Therefore, three methods were applied to assess the effect of MDM2-HDAC dual inhibitor 11b on the apoptosis of MCF-7 cells. […] Subsequently, the annexin V-FITC/propidium iodide (PI) double staining method was carried out to quantitatively detect the effect of compound 11b on cell apoptosis (Figure 9B).
TUNEL assay was performed using in situ apoptosis detection kit (Promega, USA), according to the manufacturer’s protocols. […] After 24 h incubation, cells were plated onto the slides, fixed in 4% paraformaldehyde in PBS for 25 min, and then washed with PBS twice. After that, the cells were incubated in TUNEL reaction mixture at 37°C for 60 min. Then nuclei were counterstained with DAPI, and cells were checked under an immunofluorescent confocal microscopy (Olympus FV1000).

The subject of the next test is Ac-H4 in MCF-7 cells. Briefly: Western blot, acetylation of H4. It is filed as cell-based, human. As to conditions: MCF-7, 24 h. The protocol: as §1
In general terms: Immunoblotting shows a protein as a band on a membrane.

A further test has as its target HDAC2 (Homo sapiens, UniProt Q92769). The experiment in a line: HDAC isoform selectivity, HDAC2. It is filed as biochemical. As to conditions: HDAC subtype panel.
For the next test, the target named is T4, GST-tagged MDM2 (Homo sapiens, UniProt Q00987).
T4 construct: purchased Cisbio Co. Ltd
Briefly: HTRF enzyme inhibition assay, MDM2. It is filed as biochemical. In general terms: TR-FRET usually uses a lanthanide donor and a delayed reading to cut background.

“Also recorded” adds a separate entry of the source.

Sequence of HDAC1 (Q13547 whole entry): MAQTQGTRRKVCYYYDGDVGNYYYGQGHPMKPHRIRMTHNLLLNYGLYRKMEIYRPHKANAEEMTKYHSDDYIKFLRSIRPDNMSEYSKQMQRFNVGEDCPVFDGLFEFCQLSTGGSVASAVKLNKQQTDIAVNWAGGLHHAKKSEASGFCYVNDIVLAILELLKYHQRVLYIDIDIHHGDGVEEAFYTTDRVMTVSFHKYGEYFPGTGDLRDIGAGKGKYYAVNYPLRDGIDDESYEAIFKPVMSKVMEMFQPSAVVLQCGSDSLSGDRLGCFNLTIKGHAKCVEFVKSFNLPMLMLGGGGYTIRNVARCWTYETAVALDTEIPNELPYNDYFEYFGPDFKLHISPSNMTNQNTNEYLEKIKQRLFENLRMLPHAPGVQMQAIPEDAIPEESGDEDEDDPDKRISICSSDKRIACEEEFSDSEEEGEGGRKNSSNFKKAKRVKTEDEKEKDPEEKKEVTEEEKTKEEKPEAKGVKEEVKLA
Sequence of HDAC4 (P56524 whole entry, canonical isoform): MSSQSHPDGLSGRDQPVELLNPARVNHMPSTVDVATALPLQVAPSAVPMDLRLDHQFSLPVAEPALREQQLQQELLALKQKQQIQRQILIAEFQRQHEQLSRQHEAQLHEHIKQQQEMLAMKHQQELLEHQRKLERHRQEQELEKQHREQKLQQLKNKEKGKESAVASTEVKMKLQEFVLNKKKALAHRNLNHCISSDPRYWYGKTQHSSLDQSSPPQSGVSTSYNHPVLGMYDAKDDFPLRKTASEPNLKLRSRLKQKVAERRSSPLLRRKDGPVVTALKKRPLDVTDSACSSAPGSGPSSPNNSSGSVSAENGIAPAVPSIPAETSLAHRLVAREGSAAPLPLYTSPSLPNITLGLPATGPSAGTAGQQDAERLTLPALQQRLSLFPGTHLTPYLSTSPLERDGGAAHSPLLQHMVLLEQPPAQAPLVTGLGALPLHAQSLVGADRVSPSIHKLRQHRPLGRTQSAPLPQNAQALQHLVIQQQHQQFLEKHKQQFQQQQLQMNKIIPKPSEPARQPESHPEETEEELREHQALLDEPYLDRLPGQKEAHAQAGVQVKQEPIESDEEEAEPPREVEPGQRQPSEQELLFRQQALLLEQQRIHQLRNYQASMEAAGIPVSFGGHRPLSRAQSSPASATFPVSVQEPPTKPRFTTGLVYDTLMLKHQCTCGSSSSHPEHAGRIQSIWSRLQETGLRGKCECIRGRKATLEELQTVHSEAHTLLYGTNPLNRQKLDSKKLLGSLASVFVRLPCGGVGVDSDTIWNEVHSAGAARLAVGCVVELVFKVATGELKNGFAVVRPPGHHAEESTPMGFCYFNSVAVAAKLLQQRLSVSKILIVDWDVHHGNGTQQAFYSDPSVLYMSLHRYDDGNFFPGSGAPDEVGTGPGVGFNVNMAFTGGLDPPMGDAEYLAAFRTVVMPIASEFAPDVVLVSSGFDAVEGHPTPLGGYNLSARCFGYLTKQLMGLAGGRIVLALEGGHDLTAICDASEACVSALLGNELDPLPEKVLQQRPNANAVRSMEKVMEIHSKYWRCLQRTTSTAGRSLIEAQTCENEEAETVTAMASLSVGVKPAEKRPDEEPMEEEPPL
Sequence of HDAC5 (Q9UQL6 whole entry, canonical isoform): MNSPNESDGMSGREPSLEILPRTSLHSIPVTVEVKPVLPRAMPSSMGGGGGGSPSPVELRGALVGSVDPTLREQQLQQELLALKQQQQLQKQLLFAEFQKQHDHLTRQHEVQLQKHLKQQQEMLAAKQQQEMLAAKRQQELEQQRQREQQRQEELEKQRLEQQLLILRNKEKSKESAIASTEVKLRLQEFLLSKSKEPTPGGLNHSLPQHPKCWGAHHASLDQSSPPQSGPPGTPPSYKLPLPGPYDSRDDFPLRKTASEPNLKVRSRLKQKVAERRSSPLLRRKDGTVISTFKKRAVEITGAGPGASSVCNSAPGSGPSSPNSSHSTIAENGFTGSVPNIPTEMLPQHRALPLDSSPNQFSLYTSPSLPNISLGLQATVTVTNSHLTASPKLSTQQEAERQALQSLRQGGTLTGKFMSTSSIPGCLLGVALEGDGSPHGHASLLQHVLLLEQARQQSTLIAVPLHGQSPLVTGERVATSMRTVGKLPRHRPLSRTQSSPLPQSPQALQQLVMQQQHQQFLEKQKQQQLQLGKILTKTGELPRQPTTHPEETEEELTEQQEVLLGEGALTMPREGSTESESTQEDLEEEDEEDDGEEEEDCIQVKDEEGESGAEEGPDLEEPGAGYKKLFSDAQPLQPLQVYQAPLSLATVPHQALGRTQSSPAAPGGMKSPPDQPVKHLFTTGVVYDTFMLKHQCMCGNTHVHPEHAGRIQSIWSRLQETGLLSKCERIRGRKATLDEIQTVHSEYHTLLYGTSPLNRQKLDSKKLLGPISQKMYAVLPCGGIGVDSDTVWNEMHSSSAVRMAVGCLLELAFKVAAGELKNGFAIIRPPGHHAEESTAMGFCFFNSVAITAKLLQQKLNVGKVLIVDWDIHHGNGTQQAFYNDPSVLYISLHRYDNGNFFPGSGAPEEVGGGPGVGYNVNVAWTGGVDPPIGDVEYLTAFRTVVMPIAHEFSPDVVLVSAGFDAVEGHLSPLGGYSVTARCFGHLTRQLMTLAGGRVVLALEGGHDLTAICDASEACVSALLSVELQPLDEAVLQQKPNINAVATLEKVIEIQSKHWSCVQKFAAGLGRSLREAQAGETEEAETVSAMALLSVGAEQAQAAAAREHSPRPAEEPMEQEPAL
Sequence of HDAC3 (O15379 whole entry, canonical isoform): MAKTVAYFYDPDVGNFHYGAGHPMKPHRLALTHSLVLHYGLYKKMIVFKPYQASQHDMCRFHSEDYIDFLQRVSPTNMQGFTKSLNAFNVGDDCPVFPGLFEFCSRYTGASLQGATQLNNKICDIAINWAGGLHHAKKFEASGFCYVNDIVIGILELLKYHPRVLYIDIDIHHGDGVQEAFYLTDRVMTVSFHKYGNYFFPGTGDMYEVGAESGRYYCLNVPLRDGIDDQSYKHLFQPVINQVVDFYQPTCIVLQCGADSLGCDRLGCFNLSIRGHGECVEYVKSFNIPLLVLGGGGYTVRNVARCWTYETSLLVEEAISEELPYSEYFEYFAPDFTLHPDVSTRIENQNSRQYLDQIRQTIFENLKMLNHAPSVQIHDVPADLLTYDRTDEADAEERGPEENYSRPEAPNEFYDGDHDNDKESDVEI
Sequence of HDAC3 (Q9Y618 395-489 partner limits assumed): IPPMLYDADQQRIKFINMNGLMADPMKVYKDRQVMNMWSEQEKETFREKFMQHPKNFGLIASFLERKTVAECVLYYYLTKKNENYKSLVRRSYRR
Sequence of HDAC9 (Q9UKV0 whole entry, canonical isoform): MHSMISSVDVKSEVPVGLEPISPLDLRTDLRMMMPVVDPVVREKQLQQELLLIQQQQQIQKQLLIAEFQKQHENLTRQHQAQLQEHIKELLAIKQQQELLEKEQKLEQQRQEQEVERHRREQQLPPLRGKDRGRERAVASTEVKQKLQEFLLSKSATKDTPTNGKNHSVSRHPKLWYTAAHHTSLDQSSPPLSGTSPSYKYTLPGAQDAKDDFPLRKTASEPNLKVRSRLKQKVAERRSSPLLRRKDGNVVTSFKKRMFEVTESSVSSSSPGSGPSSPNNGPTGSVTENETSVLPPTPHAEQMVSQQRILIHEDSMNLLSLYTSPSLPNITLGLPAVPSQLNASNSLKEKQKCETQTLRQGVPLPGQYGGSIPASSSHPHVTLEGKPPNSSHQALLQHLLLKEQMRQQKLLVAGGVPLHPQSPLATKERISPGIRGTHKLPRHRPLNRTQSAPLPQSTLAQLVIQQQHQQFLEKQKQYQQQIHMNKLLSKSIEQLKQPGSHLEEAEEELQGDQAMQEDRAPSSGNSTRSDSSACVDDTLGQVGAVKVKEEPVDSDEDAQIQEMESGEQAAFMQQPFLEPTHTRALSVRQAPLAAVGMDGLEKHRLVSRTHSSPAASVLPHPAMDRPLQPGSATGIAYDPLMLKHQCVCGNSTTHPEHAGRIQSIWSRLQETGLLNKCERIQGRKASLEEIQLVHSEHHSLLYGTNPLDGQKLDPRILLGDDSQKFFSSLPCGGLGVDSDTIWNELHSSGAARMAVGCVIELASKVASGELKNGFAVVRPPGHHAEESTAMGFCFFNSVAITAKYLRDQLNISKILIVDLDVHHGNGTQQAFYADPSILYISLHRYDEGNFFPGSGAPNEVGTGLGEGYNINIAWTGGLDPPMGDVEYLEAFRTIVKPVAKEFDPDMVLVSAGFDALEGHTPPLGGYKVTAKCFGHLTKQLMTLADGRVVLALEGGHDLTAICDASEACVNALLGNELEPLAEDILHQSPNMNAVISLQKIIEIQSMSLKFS
T4 sequence (Q00987 whole entry): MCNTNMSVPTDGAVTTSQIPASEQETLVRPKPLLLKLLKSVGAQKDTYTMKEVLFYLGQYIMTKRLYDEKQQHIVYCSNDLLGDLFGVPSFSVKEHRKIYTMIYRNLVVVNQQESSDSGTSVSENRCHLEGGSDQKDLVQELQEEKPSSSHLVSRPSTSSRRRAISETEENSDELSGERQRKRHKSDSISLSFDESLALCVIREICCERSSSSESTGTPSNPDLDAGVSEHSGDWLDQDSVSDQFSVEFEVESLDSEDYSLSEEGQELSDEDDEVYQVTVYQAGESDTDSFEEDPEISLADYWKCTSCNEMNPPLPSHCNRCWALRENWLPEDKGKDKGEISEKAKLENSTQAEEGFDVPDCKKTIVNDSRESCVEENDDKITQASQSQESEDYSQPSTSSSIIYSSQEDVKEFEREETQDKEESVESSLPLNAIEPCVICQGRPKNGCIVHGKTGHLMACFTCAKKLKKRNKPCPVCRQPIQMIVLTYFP

As for `O=C(CCCCCCC(=O)N1CCC(C(=O)Nc2ccc([C@@H]3[C@H]4CSCN4[C@]4(C(=O)Nc5cc(Cl)ccc54)[C@H]3C(=O)c3ccccc3)cc2)CC1)NO` [compound 11b, N-(4-((3R,6'S,7'R,7a'S)-6'-benzoyl-6-chloro-2-oxo-1',6',7',7a'-tetrahydro-3'H-spiro[indoline-3,5'-pyrrolo[1,2-c]thiazol]-7'-yl)phenyl)-1-(8-(hydroxyamino)-8-oxooctanoyl)piperidine-4-carboxamide], the IC50 is 1490 ± 37 nM against HDAC10; over 10000 nM against HDAC11; 115 ± 9 nM at HDAC3; over 10000 nM against HDAC5; over 10000 nM against HDAC4; 313 ± 23 nM on HDAC8. Also, the IC50 on HDAC9 was over 10000 nM; against HDAC1, 58 ± 5 nM; at HDAC2, 64 ± 4 nM; against GST-tagged MDM2, 339 ± 68 nM. Also, the “protein level of MDM2 and p53 (western blot)” value in the test with MDM2, p53 in MCF-7 cells is listed as “up-regulating the expression of p53; also recorded: increased the expression of p53; also recorded: dose-dependently increased the protein level of MDM2 as well as p53”. Also, the inhibition at 1 µM on HDAC1 (read-out: % enzyme inhibition HDAC) stood at 79%. Also, the “apoptotic positive cells by TUNEL staining” value with MCF-7 cells is on record as “significantly higher number of apoptotic positive cells”. Further, the “acetylation level of H4 (Ac-H4, western blot)” value in the test on Ac-H4 in MCF-7 cells is “up-regulating the expression of p53 and Ac-H4; also recorded: increased the expression of p53 and Ac-H4; also recorded: increased acetylation level of H4”.

The IC50 is the point on the concentration scale where inhibition reaches its midpoint. By inhibition is commonly meant the share of the control response that was lost under treatment.

The values are drawn from PMC9386376, “Discovery of spirooxindole-derived small-molecule compounds as novel HDAC/MDM2 dual inhibitors and investigation of their anticancer activity” (Frontiers in Oncology, 2022).
